Results taken from publication PMC8203827, “The Stand-Alone PilZ-Domain Protein MotL Specifically Regulates the Activity of the Secondary Lateral Flagellar System in Shewanella putrefaciens” (Frontiers in Microbiology, 2021).

Biological target: T1, MotL (sfGFP-MotL) (Shewanella putrefaciens, UniProt A0ABX8XB40)
T1 construct: gene K3G22_17145
T1 sequence (A0ABX8XB40 1-144): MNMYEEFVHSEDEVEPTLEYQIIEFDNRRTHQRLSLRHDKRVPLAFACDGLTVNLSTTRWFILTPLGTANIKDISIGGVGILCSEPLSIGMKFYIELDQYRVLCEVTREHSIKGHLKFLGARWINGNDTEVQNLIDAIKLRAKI
Experiment: radioligand spot binding on nitrocellulose, phosphorimaging
Conditions: labelled compound ([…]); […] protein, […] Tris-HCl, […] NaCl, […] MgCl2, […] min, RT; protein purified from strain co-producing phosphodiesterase PdeH

Nc1nc2c(ncn2[C@@H]2O[C@@H]3COP(=O)(O)O[C@H]4[C@@H](O)[C@H](n5cnc6c(=O)[nH]c(N)nc65)O[C@@H]4COP(=O)(O)O[C@H]3[C@H]2O)c(=O)[nH]1 [c-di-GMP]
radioligand spot binding on nitrocellulose, phosphorimaging: Produced under these conditions, robust c-di-GMP binding to MotL could be observed
